Values joined by “and” are separate entries in the source; they are usually repeats but may differ in a detail not shown here. Identical values can stand only once. Toxic doses and inconclusive results are not listed. Rule as the data show it: active = T/C of 150% or more; inactive = T/C below 125%.
System: L1210 leukemia ip in BDF1 mice, survival T/C
Experiment: NCI In Vivo Anticancer Drug Screen. Data for tumor model L1210 Leukemia (intraperitoneal) in B6D2F1 (BDF1) mice
Conditions: endpoint: mean survival time, higher = longer survival
Method in brief: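 Antitumor effect is assessed in tumor-bearing animals. Survival in the compound arm is compared with a vehicle-dosed control arm and expressed as their quotient.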

[1] = dose: 100.0 mg/kg/injection, schedule: Q04DX003 (ip), vehicle: saline
[2] = dose: 100.0 mg/kg/injection, schedule: Q01DX009 (ip), vehicle: saline with Tween-80
[3] = dose: 100.0 mg/kg/injection, schedule: Q04DX002 (ip), vehicle: saline with Tween-80
[4] = dose: 100.0 mg/kg/injection, schedule: Q04DX003 (ip), vehicle: saline with Tween-80
[5] = dose: 200.0 mg/kg/injection, schedule: Q04DX003 (ip), vehicle: saline with Tween-80
[6] = dose: 100.0 mg/kg/injection, schedule: Q04DX003 (ip), vehicle: Klucel (hydroxypropylcellulose) (HPC)
[7] = dose: 200.0 mg/kg/injection, schedule: Q04DX003 (ip), vehicle: Klucel (hydroxypropylcellulose) (HPC)
[8] = dose: 400.0 mg/kg/injection, schedule: Q04DX003 (ip), vehicle: Klucel (hydroxypropylcellulose) (HPC)
[9] = dose: 400.0 mg/kg/injection, schedule: Q04DX003 (ip), vehicle: saline with Tween-80
[10] = dose: 100.0 mg/kg/injection, schedule: Q01DX009 (ip), vehicle: Klucel (hydroxypropylcellulose) (HPC)
[11] = dose: 200.0 mg/kg/injection, schedule: Q01DX009 (ip), vehicle: Klucel (hydroxypropylcellulose) (HPC)

Measured: T/C

COc1ccc2c(c1)CC[C@@H]1[C@@H]2CC[C@]2(C)/C(=N\O)CC[C@@H]12
inactive: dose: 100.0 mg/kg/injection, schedule: Q01DX001 (sc), vehicle: steriod suspending solution 100 % of control | dose: 100.0 mg/kg/injection, schedule: Q04DX003 (ip), vehicle: steriod suspending solution 102 % of control | dose: 200.0 mg/kg/injection, schedule: Q01DX001 (sc), vehicle: steriod suspending solution 100 % of control | dose: 200.0 mg/kg/injection, schedule: Q04DX003 (ip), vehicle: steriod suspending solution 100 % of control | dose: 400.0 mg/kg/injection, schedule: Q01DX001 (sc), vehicle: steriod suspending solution 97 % of control | dose: 400.0 mg/kg/injection, schedule: Q04DX003 (ip), vehicle: steriod suspending solution 97 % of control

Cc1cc(C)c(/C=N/O)c(C)c1
inactive: dose: 50.0 mg/kg/injection, schedule: Q01DX009 (ip), vehicle: acetone 93 % of control | dose: 100.0 mg/kg/injection, schedule: Q01DX009 (ip), vehicle: acetone 87 % of control | [1] 102 % of control | dose: 200.0 mg/kg/injection, schedule: Q04DX003 (ip), vehicle: saline 97 % of control | dose: 400.0 mg/kg/injection, schedule: Q04DX003 (ip), vehicle: saline 100 % of control

Cc1ccc(NC2=NCCO2)cc1
inactive: dose: 50.0 mg/kg/injection, schedule: Q01DX001 (ip), vehicle: carboxymethylcellulose (CMC) 104 % of control | dose: 100.0 mg/kg/injection, schedule: Q01DX001 (ip), vehicle: carboxymethylcellulose (CMC) 96 % of control | dose: 200.0 mg/kg/injection, schedule: Q01DX001 (ip), vehicle: carboxymethylcellulose (CMC) 98 % of control

CC(C)(C)c1ccc(SC(=O)Nc2cc([N+](=O)[O-])ccc2Cl)cc1
inactive: dose: 25.0 mg/kg/injection, schedule: Q01DX009 (ip), vehicle: saline with Tween-80 90 % of control | dose: 50.0 mg/kg/injection, schedule: Q01DX009 (ip), vehicle: saline with Tween-80 101 % of control | [2] 100 % of control and 92 % of control

[Cl][Rh][Cl].[NH-]c1nccs1.[NH-]c1nccs1.[NH-]c1nccs1.[NH-]c1nccs1
inactive: dose: 3.13 mg/kg/injection, schedule: Q04DX003 (ip), vehicle: distilled water + Tween-80 103 % of control | dose: 6.25 mg/kg/injection, schedule: Q04DX003 (ip), vehicle: distilled water + Tween-80 96 % of control | dose: 12.5 mg/kg/injection, schedule: Q04DX003 (ip), vehicle: distilled water + Tween-80 97 % of control | dose: 25.0 mg/kg/injection, schedule: Q04DX003 (ip), vehicle: distilled water + Tween-80 96 % of control | dose: 50.0 mg/kg/injection, schedule: Q04DX003 (ip), vehicle: distilled water + Tween-80 103 % of control | dose: 100.0 mg/kg/injection, schedule: Q04DX003 (ip), vehicle: distilled water + Tween-80 102 % of control | dose: 200.0 mg/kg/injection, schedule: Q04DX003 (ip), vehicle: distilled water + Tween-80 103 % of control

O=S(=O)(CCCl)CCc1ccccc1
inactive: [3] 96 % of control | dose: 200.0 mg/kg/injection, schedule: Q04DX002 (ip), vehicle: saline with Tween-80 89 % of control | dose: 400.0 mg/kg/injection, schedule: Q04DX002 (ip), vehicle: saline with Tween-80 93 % of control

COc1ccc(C(C(C(C)=O)C(C)=O)C(C(C)=O)C(C)=O)cc1
inactive: [4] 100 % of control | [5] 93 % of control

O=[N+]([O-])c1cc([As](=O)(O)O)ccc1O
inactive: dose: 6.25 mg/kg/injection, schedule: Q04DX003 (ip), vehicle: saline 100 % of control | dose: 12.5 mg/kg/injection, schedule: Q04DX003 (ip), vehicle: saline 100 % of control | dose: 25.0 mg/kg/injection, schedule: Q04DX003 (ip), vehicle: saline 92 % of control and 100 % of control | dose: 50.0 mg/kg/injection, schedule: Q04DX003 (ip), vehicle: saline 106 % of control | [1] 105 % of control

O=[N+]([O-])c1cccc2cn[nH]c12
inactive: dose: 25.0 mg/kg/injection, schedule: Q04DX002 (ip), vehicle: saline with Tween-80 100 % of control | dose: 50.0 mg/kg/injection, schedule: Q04DX002 (ip), vehicle: saline with Tween-80 110 % of control | [3] 107 % of control and 89 % of control

c1ccc(CNCC(NCc2ccccc2)c2ccccc2)cc1 (stereo unspecified)
inactive: [6] 91 % of control | [4] 93 % of control | [7] 93 % of control | [5] 97 % of control | [8] 98 % of control | [9] 88 % of control

CCC[CH2][Sn]([CH2]CCC)([CH2]CCC)[S]C(=S)NCCNC(=S)[S][Sn]([CH2]CCC)([CH2]CCC)[CH2]CCC
inactive: dose: 0.5 mg/kg/injection, schedule: Q01DX015 (ip), vehicle: carboxymethylcellulose (CMC) 101 % of control | dose: 1.0 mg/kg/injection, schedule: Q01DX015 (ip), vehicle: carboxymethylcellulose (CMC) 103 % of control | dose: 2.5 mg/kg/injection, schedule: Q01DX001 (ip), vehicle: saline 108 % of control | dose: 2.5 mg/kg/injection, schedule: Q01DX015 (ip), vehicle: carboxymethylcellulose (CMC) 110 % of control | dose: 5.0 mg/kg/injection, schedule: Q01DX001 (ip), vehicle: saline 108 % of control | dose: 5.0 mg/kg/injection, schedule: Q01DX015 (ip), vehicle: carboxymethylcellulose (CMC) 103 % of control | dose: 10.0 mg/kg/injection, schedule: Q01DX001 (ip), vehicle: saline 101 % of control | dose: 10.0 mg/kg/injection, schedule: Q01DX015 (ip), vehicle: carboxymethylcellulose (CMC) 113 % of control | dose: 20.0 mg/kg/injection, schedule: Q01DX015 (ip), vehicle: carboxymethylcellulose (CMC) 101 % of control | dose: 30.0 micrograms/kg/injection, schedule: Q01DX015 (ip), vehicle: carboxymethylcellulose (CMC) 106 % of control | dose: 60.0 micrograms/kg/injection, schedule: Q01DX015 (ip), vehicle: carboxymethylcellulose (CMC) 110 % of control | dose: 120.0 micrograms/kg/injection, schedule: Q01DX015 (ip), vehicle: carboxymethylcellulose (CMC) 102 % of control | dose: 240.0 micrograms/kg/injection, schedule: Q01DX015 (ip), vehicle: carboxymethylcellulose (CMC) 102 % of control

O=C1OCC/C1=C/CCCC/C=C1\CCOC1=O
inactive: [10] 93 % of control | [6] 94 % of control | [11] 98 % of control | dose: 266.0 mg/kg/injection, schedule: Q04DX003 (ip), vehicle: Klucel (hydroxypropylcellulose) (HPC) 93 % of control | [8] 94 % of control

Cc1cc(C)c(S(=O)(=O)ON=C2c3ccccc3-c3ccccc32)c(C)c1
inactive: [10] 107 % of control | [6] 105 % of control | [11] 104 % of control | [7] 110 % of control | dose: 400.0 mg/kg/injection, schedule: Q01DX009 (ip), vehicle: Klucel (hydroxypropylcellulose) (HPC) 101 % of control | [8] 97 % of control

CCC(CO)NC1CCCC1 (stereo unspecified)
inactive: dose: 75.0 mg/kg/injection, schedule: Q01DX001 (ip), vehicle: acid diluted with saline 100 % of control | dose: 150.0 mg/kg/injection, schedule: Q01DX001 (ip), vehicle: acid diluted with saline 100 % of control | dose: 300.0 mg/kg/injection, schedule: Q01DX001 (ip), vehicle: acid diluted with saline 100 % of control

Cn1c(CO)cc2ccccc21
inactive: [2] 98 % of control | [4] 96 % of control | dose: 200.0 mg/kg/injection, schedule: Q01DX009 (ip), vehicle: saline with Tween-80 98 % of control | [5] 96 % of control | dose: 400.0 mg/kg/injection, schedule: Q01DX009 (ip), vehicle: saline with Tween-80 88 % of control | [9] 98 % of control
